Reference: patent EP4748840A1, “IMIDAZO[1,2-A]PYRIDINE TYPE IRAK DEGRADATION AGENT AND USE THEREOF” (TAINUORUI (TIANJIN) BIOTECHNOLOGY CO., LTD, priority 2023, dated 2025)

What was measured:
[1] = molecular target: T1, IRAK4 (Homo sapiens, UniProt Q9NWZ3); assay: HiBiT-based intracellular degradation assay of THP1-HIBiT-IRAK4 cells; assay type: cell-based; conditions: half-maximal degradation concentration of IRAK4 protein, 24 h incubation
T1 construct: expressed in transfected cells; host or cells: THP1 (THP1-HIBiT-IRAK4 engineered line)
T1 sequence (Q9NWZ3 1-460): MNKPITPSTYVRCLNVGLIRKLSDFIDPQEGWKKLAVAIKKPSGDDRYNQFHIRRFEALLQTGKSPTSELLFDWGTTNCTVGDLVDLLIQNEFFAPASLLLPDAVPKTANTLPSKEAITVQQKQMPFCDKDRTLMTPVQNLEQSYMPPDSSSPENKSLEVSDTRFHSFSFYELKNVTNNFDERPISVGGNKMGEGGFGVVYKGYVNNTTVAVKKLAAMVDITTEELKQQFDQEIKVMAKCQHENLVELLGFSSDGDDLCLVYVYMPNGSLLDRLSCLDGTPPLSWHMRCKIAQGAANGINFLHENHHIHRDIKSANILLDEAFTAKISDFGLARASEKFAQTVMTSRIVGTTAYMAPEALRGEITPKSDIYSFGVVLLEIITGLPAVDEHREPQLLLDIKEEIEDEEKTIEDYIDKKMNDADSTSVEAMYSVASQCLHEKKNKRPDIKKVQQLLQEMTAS
Procedure: HiBiT-based intracellular degradation assay of THP1-HIBiT-IRAK4 cells
THP1-HIBiT-IRAK4 cells were cultured in RPMI 1640 medium supplemented with 10% fetal bovine serum (FBS) and 1% penicillin-streptomycin (PS) (37°C and 5% CO2). The THP1-HIBiT-IRAK4 cells were inoculated in a 384-well plate at 5000 cells/40 µL/well. Compound solutions with different concentrations were added at 40 nL/well and incubated for 24 h at 37°C in 5% CO2. HiBiT lysis detection reagents were added to the wells, the plate was incubated for 30 min at room temperature, and luminescence values were read on Envision. [formula]
The DC50 (half-maximal degradation concentration) of each compound was obtained using XLfit software and the following nonlinear fitting equation: Y = bottom + (top−bottom)/(1+10^(∧)((LogDC50−X)×Hillslope)). [formula]
X denotes a log value of the compound concentration.
Y denotes the degradation rate.
Table 1 lists the results of DC50 values of IRAK4 protein degradation. […]

[2] = In vivo pharmacokinetic study in mice; conditions: male CD1 mice
Procedure: In vivo pharmacokinetic study
The pharmacokinetic behaviors of Example 1 and Example 15 in mice were studied using the following experimental protocol to evaluate their pharmacokinetic characteristics.
The mice had free access to food and water before the test.
(§1) Approximately 0.03 mL of venous blood was collected from the dorsal metatarsal vein of each mouse separately after 0.033 h, 0.083 h, 0.25 h, 0.5 h, 1 h, 2 h, 4 h, 8 h, and 24 h since intravenous injection. The blood was placed in an EDTA-K2 tube and centrifuged for 5 min at 4000 g and 4°C. The plasma was separated. The concentration of the compound in the plasma was determined through liquid chromatography-tandem mass spectrometry.
as §1, with “after” for “after 0.033 h,”, “oral administration.” for “intravenous injection.”

[3] = mouse, plasma, Intravenous Injection (2 mg/kg)

DC50 [1] [nM]	SMILES	other results
4.29	CC(C)(O)c1cc2nc(C3CCN(CCC4CCN(c5ccc6c(c5)C(=O)N(C5CCC(=O)NC5=O)C6=O)CC4)CC3)cn2cc1NC(=O)c1cccc(C(F)(F)F)n1 (stereo not shown) [Example 18, N-(2-(1-(2-(1-(2-(2,6-dioxopiperidin-3-yl)-1,3-dioxoisoindolin-5-yl)piperidin-4-yl)ethyl)piperidin-4-yl)-7-(2-hydroxypropan-2-yl)imidazo[1,2-a]pyridin-6-yl)-6-(trifluoromethyl)pyridine-2-carboxamide]	
0.51	CC(C)(O)c1cc2nc(C3CCN(CCN4CCN(c5ccc6c(c5)CN(C5CCC(=O)NC5=O)C6=O)CC4)CC3)cn2cc1NC(=O)c1cccc(C(F)(F)F)n1 (stereo not shown) [Example 10, N-(2-(1-(2-(4-(2-(2,6-dioxopiperidin-3-yl)-1-oxoisoindolin-5-yl)piperazin-1-yl)ethyl)piperidin-4-yl)-7-(2-hydroxypropan-2-yl)imidazo[1,2-a]pyridin-6-yl)-6-(trifluoromethyl)pyridine-2-carboxamide]	
> 10000	CC(C)(O)c1cc2nc(C3CCN(CCCCC#Cc4cccc5c4CN(C4CCC(=O)NC4=O)C5=O)CC3)cn2cc1NC(=O)c1cccc(C(F)(F)F)n1 (stereo not shown) [Comparative Example 2, N-(2-(1-(6-(2-(2,6-dioxopiperidin-3-yl)-1-oxoisoindolin-4-yl)hex-5-yn-1-yl)piperidin-4-yl)-7-(2-hydroxypropan-2-yl)imidazo[1,2-a]pyridin-6-yl)-6-(trifluoromethyl)pyridine-2-carboxamide, reference compound]	
> 10000	CC(C)(O)c1cc2nc(C3CCN(CCOCCNc4cccc5c4C(=O)N(C4CCC(=O)NC4=O)C5=O)CC3)cn2cc1NC(=O)c1cccc(C(F)(F)F)n1 (stereo not shown) [Comparative Example 1, N-(2-(1-(2-(2-((2-(2,6-dioxopiperidin-3-yl)-1,3-dioxoisoindolin-4-yl)amino)ethoxy)ethyl)piperidin-4-yl)-7-(2-hydroxypropan-2-yl)imidazo[1,2-a]pyridin-6-yl)-6-(trifluoromethyl)pyridine-2-carboxamide, reference compound]	

Continued, molecule first:

SMILES	DC50 [1] [nM]	other results
CC(C)(O)c1cc2nc(C3CCN(CC4CCN(c5cc6c(cc5F)C(=O)N([C@H]5CCC(=O)NC5=O)C6=O)CC4)CC3)cn2cc1NC(=O)c1cccc(C(F)(F)F)n1 [Example 26, (S)-N-(2-(1-((1-(2-(2,6-dioxopiperidin-3-yl)-6-fluoro-1,3-dioxoisoindolin-5-yl)piperidin-4-yl)methyl)piperidin-4-yl)-7-(2-hydroxypropan-2-yl)imidazo[1,2-a]pyridin-6-yl)-6-(trifluoromethyl)pyridine-2-carboxamide]	2.15	
COc1cc2nc(C3CCN(CCN4CCN(c5ccc6c(c5)C(=O)N(C5CCC(=O)NC5=O)C6=O)CC4)CC3)cn2cc1NC(=O)c1cccc(C(F)(F)F)n1 (stereo not shown) [Example 11, N-(2-(1-(2-(4-(2-(2,6-dioxopiperidin-3-yl)-1,3-dioxoisoindolin-5-yl)piperazin-1-yl)ethyl)piperidin-4-yl)-7-methoxyimidazo[1,2-a]pyridin-6-yl)-6-(trifluoromethyl)pyridine-2-carboxamide]	2.23	
CC(C)(O)c1cc2nc(C3CCN(CCN4CC5(CCN(c6ccc7c(c6)C(=O)N(C6CCC(=O)NC6=O)C7=O)CC5)C4)CC3)cn2cc1NC(=O)c1cccc(C(F)(F)F)n1 (stereo not shown) [Example 17, N-(2-(1-(2-(7-(2-(2,6-dioxopiperidin-3-yl)-1,3-dioxoisoindolin-5-yl)-2,7-diazaspiro[3.5]nonan-2-yl)ethyl)piperidin-4-yl)-7-(2-hydroxypropan-2-yl)imidazo[1,2-a]pyridin-6-yl)-6-(trifluoromethyl)pyridine-2-carboxamide]	4.86	
CC(C)(O)c1cc2nc(C3CCN(CCN4CCN(c5cc6c(cc5F)C(=O)N(C5CCC(=O)NC5=O)C6=O)CC4)CC3)cn2cc1NC(=O)c1cccc(C(F)(F)F)n1 (stereo not shown) [Example 22, N-(2-(1-(2-(4-(2-(2,6-dioxopiperidin-3-yl)-6-fluoro-1,3-dioxoisoindolin-5-yl)piperazin-1-yl)ethyl)piperidin-4-yl)-7-(2-hydroxypropan-2-yl)imidazo[1,2-a]pyridin-6-yl)-6-(trifluoromethyl)pyridine-2-carboxamide]	4.76	
CC(C)(O)c1cc2nc(C3CCN(CC4CCN(c5ccc6c(c5)C(=O)N(C5CCC(=O)NC5=O)C6=O)CC4)CC3)cn2cc1NC(=O)c1cccc(C(F)(F)F)n1 (stereo not shown) [Example 1]	4.53	F ([2]; oral bioavailability, Oral Administration (20 mg/kg) vs Intravenous Injection (2 mg/kg)): 12.1%; clearance [2, 3]: 59.5 mL/min/kg; half-life [2, 3]: 7.88 h; half-life ([2]; mouse, plasma, Oral Administration (20 mg/kg)): 6.81 h; AUC(0-t) ([2]; mouse, Intravenous Injection (2 mg/kg), plasma): 550 ng·h/mL; AUC(0-t) ([2]; mouse, Oral Administration (20 mg/kg), plasma): 626 ng·h/mL
CC(C)(O)c1cc2nc(C3CCN(CCC(=O)N4CCN(c5ccc6c(c5)C(=O)N(C5CCC(=O)NC5=O)C6=O)CC4)CC3)cn2cc1NC(=O)c1cccc(C(F)(F)F)n1 (stereo not shown) [Example 3, N-(2-(1-(3-(4-(2-(2,6-dioxopiperidin-3-yl)-1,3-dioxoisoindolin-5-yl)piperazin-1-yl)-3-oxopropyl)piperidin-4-yl)-7-(2-hydroxypropan-2-yl)imidazo[1,2-a]pyridin-6-yl)-6-(trifluoromethyl)pyridine-2-carboxamide]	13.9	
